US20150315211A1, “SMALL MOLECULES FOR THE MODULATION OF MCL-1 AND METHODS OF MODULATING CELL DEATH, CELL DIVISION, CELL DIFFERENTIATION AND METHODS OF TREATING DISORDERS” (priority 2010, published 2015)
Like-named read-outs stand apart in the source and are kept apart here.

Assays:
[1] = molecular target: T1, MCL-1ΔNΔC (Homo sapiens, UniProt Q07820); details: pre-incubation, re-concentration, FP with FITC-BID BH3
Protocol: A small sample was taken as a pre-dilution control. Compound-treated protein and unmodified protein were then diluted to a volume of 20 mL, and subsequently re-concentrated to 500 mL using 10K centrifugal filter units (Amicon). FP binding analysis was performed as described above by adding serial dilutions of compound-modified MCL-1 and unmodified MCL-1, both before and after dilution, followed by FITC-BID BH3 (15 nM) to a 96-well black flat bottom plate (Costar). FP measurements and analyses are then performed as described above.
Briefly, MCL-1ΔNΔC was pre-incubated with the small molecule inhibitors prior to dilution with buffer. The solution was concentrated to its original volume and fluorescence polarization was performed. Compounds that bind covalently will remain bound to the protein, whereas compounds that bind reversibly will be exchanged upon dilution.

[2] = molecular target: T1, MCL-1ΔNΔC; experiment: High-throughput competitive FP binding screen, FITC-MCL-1 SAHB/MCL-1ΔNΔC interaction; design: the C-terminal alpha-helix was deleted from each of these constructs; GST (N, cleaved yes); made in house
[3] = test system: MCL-1ΔNΔC; experiment: as above
[4] = molecular target: BCL-XLΔC (Homo sapiens, UniProt Q07817); experiment: High-throughput competitive FP binding screen, FITC-BAD BH3/BCL-XLΔC interaction
Chain of BCL-XLΔC (Q07817 1-212 limits assumed, stated change not applied): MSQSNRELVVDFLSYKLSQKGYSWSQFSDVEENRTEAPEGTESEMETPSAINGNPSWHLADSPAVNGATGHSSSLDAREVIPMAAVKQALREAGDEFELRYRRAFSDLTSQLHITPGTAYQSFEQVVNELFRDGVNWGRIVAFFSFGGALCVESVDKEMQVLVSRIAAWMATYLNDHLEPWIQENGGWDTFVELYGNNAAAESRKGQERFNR

[5] = FITC-MCL-1 SAHB/MCL-1ΔNΔC interaction pair, competitive FP screen
[6] = selectivity for MCL-1ΔNΔC over BCL-XLΔC targeting (BCL-XL % Bound minus MCL-1 % Bound)
[7] = FITC-BAD BH3/BCL-XLΔC interaction pair, competitive FP screen

T1 sequence (Q07820 172-320 limits assumed, stated change not applied): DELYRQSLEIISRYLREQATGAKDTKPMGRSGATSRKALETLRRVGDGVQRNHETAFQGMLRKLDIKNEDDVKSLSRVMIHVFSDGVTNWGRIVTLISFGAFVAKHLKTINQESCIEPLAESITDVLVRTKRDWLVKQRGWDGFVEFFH

| Structure (SMILES) | mechanism of binding to MCL-1ΔNΔC upon dilution (reversible vs covalent) [1] | MCL-1% Bound [2, 5] | Spec Values [3, 6] | BCL-XL % Bound [4, 7] | MCL-1% Bound [2] | Spec Values [3] | BCL-XL % Bound [4] |
| --- | --- | --- | --- | --- | --- | --- | --- |
| Cc1cc2c(C(C)C)c(O)c(O)c(C=O)c2c(O)c1-c1c(C)cc2c(C(C)C)c(O)c(O)c(C=O)c2c1O [Gossypol] | bound reversibly |  |  |  |  |  |  |
| O=C(OCC1O[C@H](OC(=O)c2cc(O)c(O)c(OC(=O)c3cc(O)c(O)c(O)c3)c2)[C@H](OC(=O)c2cc(O)c(O)c(OC(=O)c3cc(O)c(O)c(O)c3)c2)[C@@H](OC(=O)c2cc(O)c(O)c(OC(=O)c3cc(O)c(O)c(O)c3)c2)[C@@H]1OC(=O)c1cc(O)c(O)c(OC(=O)c2cc(O)c(O)c(O)c2)c1)c1cc(O)c(O)c(OC(=O)c2cc(O)c(O)c(O)c2)c1 (stereo partly shown) [Tannic Acid, reference compound] |  | 15.94% | 82.32 | 98.26% |  |  |  |
| N#C/C(=C\c1ccc(O)c(O)c1)C(N)=S [Tyrphostin 47, reference compound] |  |  |  |  | 34.55% | 66.21 | 100.8% |
| Cc1ccc2c(c1)CC[C@H]1C3CC[C@H](NCCCCCCN4C(=O)C=CC4=O)[C@@]3(C)CC[C@H]21 (stereo partly shown) [U73122, reference compound] |  | 56.6% | 49.67 | 106.3% |  |  |  |
| O=c1c(O)c(-c2cc(O)c(O)c(O)c2)oc2cc(O)cc(O)c12 [drawing 14] |  | 34.13% | 68.23 | 102.4% |  |  |  |
| N#C/C(=C\c1ccc(O)c(O)c1)C(N)=S [drawing 16] |  |  |  |  | 34.55% | 66.21 | 100.8% |
| COc1ccc2c(c1)CC[C@@H]1C2CC[C@@]2(C)C1CC[C@@H]2NCCCCCCN1C(=O)CCC1=O (stereo partly shown) [drawing 18] |  | 56.6% | 49.67 | 106.3% |  |  |  |
| O=c1cc(-c2ccccc2)oc2cc(O)c(O)c(O)c12 [drawing 19] |  | 10.32% | 93.84 | 104.2% |  |  |  |
| O=c1oc2c(O)c(O)cc3c(=O)oc4c(O)c(O)cc1c4c23 [drawing 20] |  | 1.26% | 89.32 | 90.58% |  |  |  |
| Oc1c(Cl)cc(Cl)c(Cl)c1Cc1c(O)c(Cl)cc(Cl)c1Cl [drawing 23] |  |  |  |  | 41.01% | 59.35 | 100.4% |
| O=C(OCC1O[C@H](OC(=O)c2cc(O)c(O)c(OC(=O)c3cc(O)c(O)c(O)c3)c2)[C@H](OC(=O)c2cc(O)c(O)c(OC(=O)c3cc(O)c(O)c(O)c3)c2)[C@@H](OC(=O)c2cc(O)c(O)c(OC(=O)c3cc(O)c(O)c(O)c3)c2)[C@@H]1OC(=O)c1cc(O)c(O)c(OC(=O)c2cc(O)c(O)c(O)c2)c1)c1cc(O)c(O)c(OC(=O)c2cc(O)c(O)c(O)c2)c1 (stereo partly shown) [drawing 25] |  | 15.94% | 82.32 | 98.26% |  |  |  |
| COc1ccc(N(C)C(=S)Nc2ccc3nc(-c4ccco4)c(-c4ccco4)nc3c2)cc1 [drawing 44] |  | 8.332% | 72.84 | 81.17% |  |  |  |
| CC1=NOC(=O)/C1=C/c1ccc(-c2ccc(Cl)cc2)o1 [drawing 53] |  |  |  |  | 38.47% | 65.98 | 101.5% |
| CC1=C(C#N)C(=O)N=C(O)/C1=C\c1ccc(-c2ccc(S(N)(=O)=O)cc2)o1 [drawing 84] |  | 21.8% | 76.4 | 98.2% |  |  |  |
| O=C1NC(=O)N(CCC2=CCCCC2)C(=O)/C1=C/c1cnc(-c2ccccc2)nc1 [drawing 98] |  |  |  |  | 43.51% | 63.4 | 106.9% |
| CCOc1cc(C(Nc2cccnc2)c2ccc3cccnc3c2O)ccc1O (stereo not shown) [drawing 145] |  | −0.3% | 108.7 | 108.4% |  |  |  |
| Cc1cc2c(C(C)C)c(O)c(O)c(C=O)c2c(O)c1-c1c(C)cc2c(C(C)C)c(O)c(O)c(C=O)c2c1O [drawing 158] |  |  |  |  | 3.955% | 97.07 | 101% |
| O=c1cc(-c2ccccc2)oc2cc(O)c(O)c(O)c12 [drawing 161] |  | 10.32% | 93.84 | 104.2% |  |  |  |
| O=c1c(O)c(-c2ccc(O)c(O)c2)oc2cc(O)cc(O)c12 [drawing 167] |  | 16.69% | 88.65 | 105.3% |  |  |  |
| O=c1c(O)c(-c2ccc(O)c(O)c2)oc2cc(O)cc(O)c12 [drawing 172] |  | 9.24% | 83.25 | 92.49% |  |  |  |
| O=C(OCC1O[C@H](OC(=O)c2cc(O)c(O)c(OC(=O)c3cc(O)c(O)c(O)c3)c2)[C@H](OC(=O)c2cc(O)c(O)c(OC(=O)c3cc(O)c(O)c(O)c3)c2)[C@@H](OC(=O)c2cc(O)c(O)c(OC(=O)c3cc(O)c(O)c(O)c3)c2)[C@@H]1OC(=O)c1cc(O)c(O)c(OC(=O)c2cc(O)c(O)c(O)c2)c1)c1cc(O)c(O)c(OC(=O)c2cc(O)c(O)c(O)c2)c1 (stereo partly shown) [drawing 178] |  | 15.94% | 82.32 | 98.26% |  |  |  |
| CC1=C(C#N)C(=O)N=C(O)/C1=C\c1ccc(-c2ccc(S(N)(=O)=O)cc2)o1 [drawing 191] |  | 21.8% | 76.4 | 98.2% |  |  |  |
| CC1=C(C#N)C(=O)N=C(O)/C1=C\c1ccc(-c2ccc(S(N)(=O)=O)cc2)o1 [drawing 192] |  | 17.4% | 76.4 | 93.7% |  |  |  |
| COc1ccc(N(C)C(=S)Nc2ccc3nc(-c4ccco4)c(-c4ccco4)nc3c2)cc1 [drawing 205] |  | 8.322% | 72.84 | 81.17% |  |  |  |
| O=c1c(O)c(-c2cc(O)c(O)c(O)c2)oc2cc(O)cc(O)c12 [drawing 222] |  | 34.13% | 68.23 | 102.4% |  |  |  |
| N#C/C(=C\c1ccc(O)c(O)c1)C(N)=S [drawing 231] |  |  |  |  | 34.55% | 66.21 | 100.8% |
| O=C1NC(=O)N(CCC2=CCCCC2)C(=O)/C1=C/c1cnc(-c2ccccc2)nc1 [drawing 249] |  |  |  |  | 43.51% | 63.4 | 106.9% |
| CC1=NOC(=O)/C1=C/c1ccc(-c2ccc(Cl)cc2)o1 [drawing 255] |  |  |  |  | 38.47% | 62.98 | 101.5% |
| Oc1c(Cl)cc(Cl)c(Cl)c1Cc1c(O)c(Cl)cc(Cl)c1Cl [drawing 274] |  |  |  |  | 41.01% | 59.35 | 100.4% |
| COc1ccc2c(c1)CC[C@@H]1C2CC[C@@]2(C)C1CC[C@@H]2NCCCCCCN1C(=O)CCC1=O (stereo partly shown) [drawing 365] |  | 56.6% | 49.67 | 106.3% |  |  |  |
